We go through 1 molecule from patent US8633226B2, “Piperidinyl derivative as a modulator of chemokine receptor activity” (Bristol-Myers Squibb Company, priority 2008, dated 2014).

Data set [1] addresses human cardiac sodium channel SCN5A (Homo sapiens (Human), UniProt Q14524). Kind of data set: Sodium channel whole-cell patch-clamp assay. The class given is cell-based. The settings on record: HEK-293 cells expressing human cardiac sodium channel SCN5A, pH 7.4, protein-free buffer, read-out: Na, % inh. The protocol:
Whole-cell patch-clamp was used to directly measure inward sodium currents in HEK-293 cells expressing the human cardiac sodium channel, SCN5A. After reach steady-state effect in the presence of drug, rate-dependence was assessed by stimulation at frequencies of 1 Hz and 4 Hz. Experiments were carried out using an aqueous buffer at pH 7.4 and at room temperature. There is no protein in the buffer and drug concentrations reported are nominal free drug levels. Test article was evaluated up to 10 μM (protein-free buffer). Rate-dependence of inhibition was assessed by stimulation at frequencies of 1 Hz and 4 Hz.

For data set [2], the target named is human cardiac L-type Ca channel (α1C) and its β subunit (Homo sapiens (Human), UniProt Q13936). Kind of data set: L-type calcium channel whole-cell patch-clamp assay. In kind it is cell-based. To be noted: 30 μM, HEK-293 cells, protein-free buffer. How it is done:
In addition to the potential for interaction with the L-type calcium channel, whole-cell patch-clamp was used to directly measure inward calcium currents in HEK-293 cells stably expressing the cloned human cardiac L-type Ca channel (α1C) and its β subunit. Effects of compounds were calculated by measuring inhibition of peak current. Experiments were carried out using an aqueous buffer at pH 7.4 and at room temperature. There is no protein in the buffer and drug concentrations reported are nominal free drug levels.
(In patch-clamp work, channel activity is measured electrically.)

Chain of human cardiac L-type Ca channel (α1C) and its β subunit (Q13936 whole entry): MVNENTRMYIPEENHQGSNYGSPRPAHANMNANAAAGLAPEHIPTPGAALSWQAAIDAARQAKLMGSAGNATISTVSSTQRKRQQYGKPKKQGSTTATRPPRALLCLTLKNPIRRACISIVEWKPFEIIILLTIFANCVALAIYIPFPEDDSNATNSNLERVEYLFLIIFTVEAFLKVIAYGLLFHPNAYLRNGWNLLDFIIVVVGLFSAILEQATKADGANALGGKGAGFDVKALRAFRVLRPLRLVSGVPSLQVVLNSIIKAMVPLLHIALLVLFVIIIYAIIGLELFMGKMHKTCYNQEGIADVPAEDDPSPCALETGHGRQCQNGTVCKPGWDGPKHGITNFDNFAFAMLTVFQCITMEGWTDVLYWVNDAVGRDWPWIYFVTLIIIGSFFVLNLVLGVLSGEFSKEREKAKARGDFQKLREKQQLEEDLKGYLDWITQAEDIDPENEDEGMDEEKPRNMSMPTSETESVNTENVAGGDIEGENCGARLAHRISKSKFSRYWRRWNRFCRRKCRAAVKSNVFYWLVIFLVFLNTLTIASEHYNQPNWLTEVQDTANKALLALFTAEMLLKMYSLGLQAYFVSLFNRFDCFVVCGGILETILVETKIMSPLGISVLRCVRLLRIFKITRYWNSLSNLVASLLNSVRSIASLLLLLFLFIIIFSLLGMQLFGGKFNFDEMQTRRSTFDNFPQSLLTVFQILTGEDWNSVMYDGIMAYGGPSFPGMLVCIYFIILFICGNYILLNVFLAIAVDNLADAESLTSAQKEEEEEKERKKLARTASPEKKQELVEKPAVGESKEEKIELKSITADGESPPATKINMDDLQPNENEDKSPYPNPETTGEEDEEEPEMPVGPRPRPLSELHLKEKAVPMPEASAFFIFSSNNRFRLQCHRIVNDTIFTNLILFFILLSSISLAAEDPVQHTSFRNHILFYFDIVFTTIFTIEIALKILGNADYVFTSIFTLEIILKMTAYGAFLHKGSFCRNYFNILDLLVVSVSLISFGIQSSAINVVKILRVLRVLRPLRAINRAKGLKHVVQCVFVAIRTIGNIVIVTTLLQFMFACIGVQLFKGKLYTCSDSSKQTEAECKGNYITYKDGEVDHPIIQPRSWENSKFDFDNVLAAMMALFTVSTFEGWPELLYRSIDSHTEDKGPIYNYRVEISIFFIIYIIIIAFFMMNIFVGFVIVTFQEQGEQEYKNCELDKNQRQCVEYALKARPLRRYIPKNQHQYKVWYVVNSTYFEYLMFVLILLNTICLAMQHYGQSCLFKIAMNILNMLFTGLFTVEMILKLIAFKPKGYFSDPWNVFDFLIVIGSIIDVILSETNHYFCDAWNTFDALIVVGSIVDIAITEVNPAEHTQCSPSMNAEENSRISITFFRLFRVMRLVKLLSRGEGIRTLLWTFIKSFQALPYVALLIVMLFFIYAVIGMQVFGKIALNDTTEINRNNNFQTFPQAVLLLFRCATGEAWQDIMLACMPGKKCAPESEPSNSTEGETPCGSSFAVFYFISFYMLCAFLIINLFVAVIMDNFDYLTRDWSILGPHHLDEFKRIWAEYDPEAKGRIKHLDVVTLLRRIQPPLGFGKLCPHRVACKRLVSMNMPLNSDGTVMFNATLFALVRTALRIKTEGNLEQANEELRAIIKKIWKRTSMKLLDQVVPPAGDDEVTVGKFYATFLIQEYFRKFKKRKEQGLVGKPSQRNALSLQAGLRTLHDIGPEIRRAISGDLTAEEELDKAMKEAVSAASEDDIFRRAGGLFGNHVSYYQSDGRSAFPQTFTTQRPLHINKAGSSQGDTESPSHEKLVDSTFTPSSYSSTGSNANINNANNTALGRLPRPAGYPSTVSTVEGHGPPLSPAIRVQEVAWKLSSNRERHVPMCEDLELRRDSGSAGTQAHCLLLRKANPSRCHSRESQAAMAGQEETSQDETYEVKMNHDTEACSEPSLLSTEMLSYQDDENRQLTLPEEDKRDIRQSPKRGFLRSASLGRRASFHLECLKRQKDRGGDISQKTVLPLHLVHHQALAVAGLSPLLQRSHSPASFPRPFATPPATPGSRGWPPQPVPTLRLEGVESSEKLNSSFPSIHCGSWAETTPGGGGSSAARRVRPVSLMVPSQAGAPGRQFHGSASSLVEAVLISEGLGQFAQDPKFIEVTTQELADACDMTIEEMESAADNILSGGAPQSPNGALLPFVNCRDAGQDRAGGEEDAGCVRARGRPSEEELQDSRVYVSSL
Chain of human cardiac L-type Ca channel (α1C) and its β subunit (Q08289 whole entry partner): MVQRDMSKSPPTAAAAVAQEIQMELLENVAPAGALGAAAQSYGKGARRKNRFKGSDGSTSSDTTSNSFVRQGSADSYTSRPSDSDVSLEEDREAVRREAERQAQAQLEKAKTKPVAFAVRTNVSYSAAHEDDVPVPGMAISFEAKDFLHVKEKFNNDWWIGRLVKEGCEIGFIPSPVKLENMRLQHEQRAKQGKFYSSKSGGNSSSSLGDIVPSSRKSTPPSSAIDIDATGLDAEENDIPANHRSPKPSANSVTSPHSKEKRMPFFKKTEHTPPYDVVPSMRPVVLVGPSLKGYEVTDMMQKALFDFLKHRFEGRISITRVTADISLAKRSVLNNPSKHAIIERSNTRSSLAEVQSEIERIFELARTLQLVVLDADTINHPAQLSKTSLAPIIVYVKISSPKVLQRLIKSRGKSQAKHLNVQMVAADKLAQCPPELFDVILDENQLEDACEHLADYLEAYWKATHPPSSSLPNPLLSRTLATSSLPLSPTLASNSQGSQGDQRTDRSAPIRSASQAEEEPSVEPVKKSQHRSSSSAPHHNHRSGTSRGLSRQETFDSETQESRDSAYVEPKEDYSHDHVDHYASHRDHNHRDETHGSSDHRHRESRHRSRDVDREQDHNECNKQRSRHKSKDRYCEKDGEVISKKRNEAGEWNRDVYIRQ
Chain of human cardiac sodium channel SCN5A (Q14524 whole entry): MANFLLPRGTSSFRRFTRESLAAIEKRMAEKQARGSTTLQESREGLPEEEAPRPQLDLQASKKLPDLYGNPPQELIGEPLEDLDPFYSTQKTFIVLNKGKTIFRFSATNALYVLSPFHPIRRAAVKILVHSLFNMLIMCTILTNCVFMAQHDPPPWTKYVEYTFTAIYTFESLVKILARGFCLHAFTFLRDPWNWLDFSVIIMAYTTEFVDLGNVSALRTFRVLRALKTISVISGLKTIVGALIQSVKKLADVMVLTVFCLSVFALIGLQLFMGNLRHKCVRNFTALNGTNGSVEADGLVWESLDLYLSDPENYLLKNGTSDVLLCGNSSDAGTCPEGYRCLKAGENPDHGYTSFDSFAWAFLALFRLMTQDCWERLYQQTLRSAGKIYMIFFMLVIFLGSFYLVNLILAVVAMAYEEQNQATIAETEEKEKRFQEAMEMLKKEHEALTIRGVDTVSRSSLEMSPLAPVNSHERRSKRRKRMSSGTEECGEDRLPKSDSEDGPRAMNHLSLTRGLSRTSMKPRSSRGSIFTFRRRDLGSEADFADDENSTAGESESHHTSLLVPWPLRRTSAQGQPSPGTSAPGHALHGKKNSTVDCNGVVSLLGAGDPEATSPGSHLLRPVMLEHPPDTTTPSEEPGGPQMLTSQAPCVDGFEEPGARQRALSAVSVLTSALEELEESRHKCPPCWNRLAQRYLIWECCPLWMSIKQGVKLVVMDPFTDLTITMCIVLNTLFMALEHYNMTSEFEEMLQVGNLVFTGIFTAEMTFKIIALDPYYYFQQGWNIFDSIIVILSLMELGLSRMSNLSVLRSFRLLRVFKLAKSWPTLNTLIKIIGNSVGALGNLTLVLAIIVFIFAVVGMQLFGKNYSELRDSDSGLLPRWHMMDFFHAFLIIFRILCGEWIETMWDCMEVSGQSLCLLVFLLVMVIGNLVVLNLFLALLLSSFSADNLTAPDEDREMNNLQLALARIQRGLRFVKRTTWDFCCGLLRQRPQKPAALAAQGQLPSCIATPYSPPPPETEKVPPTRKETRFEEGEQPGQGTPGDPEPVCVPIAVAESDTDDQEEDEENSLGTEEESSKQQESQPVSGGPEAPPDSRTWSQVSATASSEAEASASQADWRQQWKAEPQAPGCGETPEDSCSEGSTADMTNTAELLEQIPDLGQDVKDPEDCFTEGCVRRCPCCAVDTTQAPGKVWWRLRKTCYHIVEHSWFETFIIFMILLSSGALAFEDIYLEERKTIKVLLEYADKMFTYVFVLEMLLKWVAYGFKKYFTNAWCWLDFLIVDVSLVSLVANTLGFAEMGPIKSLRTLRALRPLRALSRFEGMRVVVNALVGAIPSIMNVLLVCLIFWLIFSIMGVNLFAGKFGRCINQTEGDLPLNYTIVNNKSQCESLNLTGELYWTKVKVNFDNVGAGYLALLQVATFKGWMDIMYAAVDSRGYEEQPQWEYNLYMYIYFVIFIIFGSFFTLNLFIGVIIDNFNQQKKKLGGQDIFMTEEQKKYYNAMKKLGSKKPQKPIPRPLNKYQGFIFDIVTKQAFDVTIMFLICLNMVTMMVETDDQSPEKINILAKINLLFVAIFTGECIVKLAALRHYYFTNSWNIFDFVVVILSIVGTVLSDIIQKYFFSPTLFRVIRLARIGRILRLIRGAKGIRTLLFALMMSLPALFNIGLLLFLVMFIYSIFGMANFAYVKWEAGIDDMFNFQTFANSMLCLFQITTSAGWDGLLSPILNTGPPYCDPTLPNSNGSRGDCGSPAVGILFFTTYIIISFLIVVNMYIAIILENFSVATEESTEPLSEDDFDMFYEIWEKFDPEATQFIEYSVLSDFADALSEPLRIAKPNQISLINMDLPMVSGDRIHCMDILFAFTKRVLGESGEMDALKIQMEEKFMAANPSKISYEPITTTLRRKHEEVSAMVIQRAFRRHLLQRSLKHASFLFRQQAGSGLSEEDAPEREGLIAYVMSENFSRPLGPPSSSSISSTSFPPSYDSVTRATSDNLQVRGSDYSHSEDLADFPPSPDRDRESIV

In the case of `CC(C)[C@@H](NC(=O)NCC(C)(C)O)C(=O)N1CC[C@](O)(c2ccc(Cl)cc2)C(C)(C)C1` [Compound I], the inhibition at 10 µM in data set [1] came to 12%. In data set [2], the “Ca, % inh” value stood at 29% @ 30 μM.
